Assay results published in patent US20160214961A1, “NOVEL SALTS OF CRIZOTINIB AND THEIR PREPARATION” (SHILPA MEDICARE LIMITED, priority 2013, published 2016).

Tests used:
[1] = Stability on handling and storage of the salts; assay type: physicochemical; conditions: storage for longer time; no significant or measurable change
[2] = powder; cited from earlier work
[3] = class IV = low solubility and low permeability; cited from earlier work
[4] = cited from earlier work

Row | Compound | stability to handle and store for longer time (morphology and physicochemical characteristics) [1] | hygroscopicity [2] | Biopharmaceutics Classification System (BCS) class [3] | solubility in acidic pH ([4]; acidic pH) | solubility in water ([4]; water)
1 | C[C@@H](Oc1cc(-c2cnn(C3CCNCC3)c2)cnc1N)c1c(Cl)ccc(F)c1Cl [Crizotinib Ferulate] | adequately stable |  |  |  | 
2 | C[C@@H](Oc1cc(-c2cnn(C3CCNCC3)c2)cnc1N)c1c(Cl)ccc(F)c1Cl [Crizotinib, (R)-3-[1-(2,6-Dichloro-3-fluorophenyl)ethoxy]-5-[1-(piperidin-4-yl)-1H-pyrazol-4-yl]pyridin-2-amine] |  | non-hygroscopic | class IV | highly soluble | insoluble
